Literature values as cited in patent publication US7652024B2, “Acylated spiropiperidine derivatives as melanocortin-4 receptor modulators” (Merck Sharp & Dohme Corp., priority 2005, dated 2010).

Tested on: erectile dysfunction patients

CCCc1nn(C)c2c(=O)[nH]c(-c3cc(S(=O)(=O)N4CCN(C)CC4)ccc3OCC)nc12 [Sildenafil, sildenafil]
effective in share of patients: about 70%
